In patent US11464810B2, “Ascaroside treatment of eosinophilic esophagitis” (California Institute of Technology, priority 2016, dated 2022):

How the values were obtained:
[1] = test system: T cell transfer model of colitis; experiment: T cell transfer model of colitis (immune dysregulation model of inflammatory bowel disease); format: in vivo, mouse; details: Rag −/− mice, 300 ng ascr#7 intraperitoneal every 3 days between day 14 and day 28
Description: A T cell transfer model of colitis where 10^6 CD4+ T cells were transferred to adult Rag −/− mice was used, and either saline or 300 ng ascr#7 were administered via intraperitoneal injection every 3 days between day 14 and day 28. On day 28, the mice were euthanized and colon analysis was performed. n=3 mice per group. […] The normal mouse colon is long, skinny, and has discrete fecal pellets. The diseased mouse colon, with IBD, has a shortened, dilated colon, with diarrhea instead of discrete fecal pellets.

[2] = test system: IL-1β; experiment: IL-1β secretion by bone marrow-derived dendritic cells, ELISA; format: cell-based, mouse; details: different concentrations of ascr#7
Description: (§1) Bone marrow was extracted from femurs of C57BL/6 mice (6-12 weeks of age). These mice were euthanized by CO2 inhalation and their femurs were removed. After removing the remaining flesh from the bone, they were cut at the metaphysis. Bone marrow was flushed out using a syringe filled with RPMI. The extracted marrow was further broken down by resuspension with syringe. The mixture was centrifuged and the pellet was re-suspended in RPMI. […] 20 ng of GM-CSF was added to each well. At day 3, and every 3 days thereafter, the media was replaced. Cells were used for experiments between day 7-9.
(§2) Bone marrow dendritic cells were collected between day 7-9 of culture. Cells were washed twice and counted. Ascr#7 in water or RPMI were placed in corresponding wells, and are allowed to dry. 10^6 cells were then plated in each well in a 24 well culture plate. Cells were left to incubate with ascr#7 for 5 minutes. Following the brief incubation, different TNFα was added to the wells. These bone marrow dendritic cells were then cultured at 37° C. for 18-72 hours. Cells were collected via the pellet generated by centrifuge. The supernatant was also preserved. EBioscience ELISA kits was used to determine the concentration of different cytokines present in each well.

[3] = test system: IL-6; experiment: IL-6 secretion by bone marrow-derived dendritic cells, ELISA; format: cell-based, mouse; details: different concentrations of ascr#7
Description: as §1, §2

[4] = test system: ovalbumin model of murine asthma; experiment: ovalbumin model of murine asthma; format: in vivo, mouse; details: C57BL/6 mice
Description: Adult C57BL/6 mice were sensitized by administering 2 ug OVA (Sigma-Aldrich) and 1 mg alum (Thermo) with 50ng ascr#7 or saline, via intraperitoneal injection, on Day 0 and 14. On day 24, the mice were challenged with intranasal administration of saline containing 100 μg OVA, under isoflurane anesthesia. Histologic sections were stained with H&E or PAS to score for eosinophilia, goblet cell metaplasia, and airway hyper-reactivity. Mice were also placed in a computer controlled small animal ventilator (SCIREQ) to score for airway hyper-reactivity following methacholine challenge. […] Animals with asthma have higher resistance of flow, which would be represented as higher “RL” values in FIG. 3B-FIG. 3F. […] Lungs were collected, postmortem, and then sectioned and stained to show the presence of eosinophils and mucus. […] In FIG. 3G, the asthmatic mouse lung, here labeled “Asthma” has a large number of mucus and eosinophils that surround the bronchioles and occupy the alveolar space; wherein the thick barriers would prohibit oxygen from easily diffusing.

[5] = 50ng ascr#7 intraperitoneal on Day 0 and 14, H&E or PAS sections

## C[C@H](CC/C=C/C(=O)O)O[C@@H]1O[C@@H](C)[C@H](O)C[C@H]1O [ascr#7]
[1]
  development of abnormal lumen dilation: markedly reduces the development of
  development of colon shortening: markedly reduces the development of
  development of diarrhea: markedly reduces the development of
[1]; colon analysis day 28, FIG. 4
  colon appearance (length, dilation, fecal pellets): normal appearing colon, which is long, skinny, and contains discrete fecal pellets
[2]; dendritic cells not stimulated with TNF-α, FIG. 2 left side
  IL-1β levels: very low levels of IL-1β
[2]; dendritic cells stimulated with TNF-α, FIG. 2 right side
  secreted IL-1β levels: reduces these levels significantly
[3]; dendritic cells not stimulated with TNF-α, FIG. 1 left side
  IL-6 levels: very low levels of IL-6
[3]; dendritic cells stimulated with TNF-α, FIG. 1 right side
  secreted IL-6 levels: reduces these levels significantly
[4]; [5]
  development of eosinophilia: reduces the development of
  development of goblet cell metaplasia: reduces the development of
[4]; 50ng ascr#7 intraperitoneal on Day 0 and 14, stained lung sections, FIG. 3G
  lung histology (eosinophils and mucus; boundaries between bronchioles and alveolar space): thin boundaries between the bronchioles and the alveolar space, comparable to the normal mice
[4]; 50ng ascr#7 intraperitoneal on Day 0 and 14 with OVA/alum, FIG. 3B-3F
  resistance of air flow (RL), airway hyper-reactivity following methacholine challenge: low resistance of air flow, with comparable levels to normal mice
